23 compounds from patent US10336762B2 (priority 2017, dated 2019) can be followed below.

Each structure is given as a SMILES string. Like-named read-outs stand apart in the source and are kept apart here.

For one assay, the system named is TNFα. Nature of the assay: cells. Conditions: Homo sapiens, Monocyte, read-out: EC50 TNF. The format is cell-based, human.
For another assay, the target named is IRAK4 enzyme (Homo sapiens (Human), UniProt Q9NWZ3). The assay is described as follows: biochemical. The format is biochemical.
Where [1] appears, read: LPS-stimulated human monocytes, TNFα content.
Setting [2] is: IRAK4 enzyme, TR-FRET, 500 μM ATP.

Sequence of IRAK4 enzyme (Q9NWZ3 whole entry): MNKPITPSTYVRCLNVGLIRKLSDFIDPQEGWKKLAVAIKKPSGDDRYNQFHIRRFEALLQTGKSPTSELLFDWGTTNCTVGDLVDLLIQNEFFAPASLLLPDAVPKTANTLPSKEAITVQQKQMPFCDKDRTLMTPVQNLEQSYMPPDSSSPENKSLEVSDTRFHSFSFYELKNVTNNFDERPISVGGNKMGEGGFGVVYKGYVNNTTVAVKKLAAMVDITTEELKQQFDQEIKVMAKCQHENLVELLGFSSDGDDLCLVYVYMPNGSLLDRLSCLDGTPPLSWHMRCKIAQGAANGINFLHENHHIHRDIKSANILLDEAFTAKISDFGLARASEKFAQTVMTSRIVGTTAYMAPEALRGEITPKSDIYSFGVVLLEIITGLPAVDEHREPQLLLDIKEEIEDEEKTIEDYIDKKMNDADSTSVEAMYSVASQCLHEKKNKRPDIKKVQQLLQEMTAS

Regarding `COC(=O)N[C@H]1CC[C@H](Nc2cc(-c3ccc4cc(C#N)cnn34)ncc2C(=O)NCC#N)CC1` [Example 268, Methyl ((1R,4R)-4-((5-((cyanomethyl)carbamoyl)-2-(3-cyanopyrrolo[1,2-b]pyridazin-7-yl)pyridin-4-yl)amino)cyclohexyl)carbamate], the EC50 in the assay with TNFα (setting [1]) came out at 29 nM. Moreover, the IC50 against IRAK4 enzyme (setting [2]) is less than 1 nM.

In the case of `Cc1nnc(N[C@H]2CC[C@H](Nc3cc(-c4ccc5cc(C#N)cnn45)ncc3C(=O)NC[C@@H](F)C(C)(C)O)CC2)o1` [Example 269, 6-(3-cyanopyrrolo[1,2-b]pyridazin-7-yl)-N-((R)-2-fluoro-3-hydroxy-3-methylbutyl)-4-(((1R,4R)-4-((5-methyl-1,3,4-oxadiazol-2-yl)amino)cyclohexyl)amino)nicotinamide], the EC50 in the assay with TNFα (setting [1]) was 59 nM. This compound yielded an IC50 against IRAK4 enzyme (setting [2]) of 1 nM.

In the case of `COC(=O)NC12CCC(Nc3cc(-c4ccc5cc(C#N)cnn45)ncc3C(=O)NC3CCC(NC(=O)N4CCOCC4)CC3)(CC1)CC2` (stereo not shown) [Example 270, methyl (4-((2-(3-cyano-pyrrolo[1,2-b]pyridazin-7-yl)-5-((4-(morpholine-4-carboxamido)cyclohexyl)carbamoyl)pyridin-4-yl)amino)bicyclo[2.2.2]octan-1-yl)carbamate], in the assay on TNFα (setting [1]), the EC50 was found to be 49 nM. Moreover, on IRAK4 enzyme (setting [2]), 1 nM corresponded to half-maximal inhibition (IC50).

`COC(=O)NC12CCC(Nc3cc(-c4ccc5cc(C#N)cnn45)ncc3C(=O)NC3CCC(NC(=O)C4CC4)CC3)(CC1)CC2` (stereo not shown) [Example 271, methyl (4-((2-(3-cyano-pyrrolo[1,2-b]pyridazin-7-yl)-5-((4-(cyclopropane-carboxamido)cyclohexyl)carbamoyl)pyridin-4-yl)amino)bicyclo[2.2.2]octan-1-yl)carbamate]: in the assay on TNFα (setting [1]), the EC50 stood at 38 nM. For the same compound, on IRAK4 enzyme (setting [2]), the midpoint of inhibition, the IC50, lay at 1 nM.

On to `CN(C)C(=O)NC12CCC(Nc3cc(-c4ccc5cc(C#N)cnn45)ncc3C(=O)NC[C@@H](F)C(C)(C)O)(CC1)CC2` [Example 272, (R)-6-(3-cyanopyrrolo[1,2-b]pyridazin-7-yl)-4-((4-(3,3-dimethylureido)bicyclo[2.2.2]octan-1-yl)amino)-N-(2-fluoro-3-hydroxy-3-methylbutyl)nicotinamide], for which the EC50 in the assay with TNFα (setting [1]) was 23 nM. In addition, the IC50 at IRAK4 enzyme (setting [2]) is 1 nM.

As to `CC(C)(O)C1CCC(Nc2cc(-c3ccc4cc(C#N)cnn34)ncc2C(=O)NC[C@@H](F)C(C)(C)O)CC1` (stereo partly drawn) [Example 273, 6-(3-cyanopyrrolo[1,2-b]pyridazin-7-yl)-N-((R)-2-fluoro-3-hydroxy-3-methylbutyl)-4-(((1r,4R)-4-(2-hydroxypropan-2-yl)cyclohexyl)amino) nicotinamide], the EC50 in the assay on TNFα (setting [1]) is 22 nM. Further, the IC50 against IRAK4 enzyme (setting [2]) was 2 nM.

Consider `CNC(=O)c1cnc(-c2ccc3cc(C#N)cnn23)cc1N[C@H]1CC[C@H](NC(=O)OC)CC1` [Example 274, methyl ((1r,4r)-4-((2-(3-cyanopyrrolo[1,2-b]pyridazin-7-yl)-5-(methylcarbamoyl)pyridin-4-yl)amino)cyclohexyl)carbamate], for which, in the assay on TNFα (setting [1]), the EC50 was determined as 144 nM. The compound further registered an IC50 on IRAK4 enzyme (setting [2]) of 1 nM.

For `CNC(=O)c1cnc(-c2ccc3cc(C#N)cnn23)cc1NC1CCC(NC(=O)C(F)(F)F)CC1` (stereo not shown) [Example 275, 6-(3-cyanopyrrolo[1,2-b]pyridazin-7-yl)-N-methyl-4-(((1r,4r)-4-(2,2,2-trifluoroacetamido)cyclohexyl)amino) nicotinamide], the EC50 with TNFα (setting [1]) is 154 nM. On IRAK4 enzyme (setting [2]), this compound had an IC50 of 3 nM.

With `CNC(=O)c1cnc(-c2ccc3cc(C#N)cnn23)cc1N[C@H]1CC[C@H](NC(C)=O)CC1` [Example 276, 4-(((1r,4r)-4-acetamidocyclohexyl)amino)-6-(3-cyano-pyrrolo[1,2-b]pyridazin-7-yl)-N-methylnicotinamide], the EC50 in the assay on TNFα (setting [1]) is 146 nM. The compound further gave an IC50 on IRAK4 enzyme (setting [2]) of 3 nM.

With `CC(=O)NC12CC(Nc3cc(-c4ccc5cc(C#N)cnn45)ncc3C(=O)NCC(F)(F)F)(C1)C2` [Example 277, 4-((3-acetamido-bicyclo[1.1.1]pentan-1-yl)amino)-6-(3-cyano-pyrrolo[1,2-b]pyridazin-7-yl)-N-(2,2,2-trifluoroethyl) nicotinamide], the EC50 with TNFα (setting [1]) worked out at 383 nM. At IRAK4 enzyme (setting [2]), this compound returned an IC50 of 5 nM.

As for `CC(=O)NC12CC(Nc3cc(-c4ccc5cc(C#N)cnn45)ncc3C(=O)NCC(F)F)(C1)C2` [Example 278, 4-((3-acetamido-bicyclo[1.1.1]pentan-1-yl)amino)-6-(3-cyano-pyrrolo[1,2-b]pyridazin-7-yl)-N-(2,2-difluoroethyl) nicotinamide], in the assay with TNFα (setting [1]), the concentration for a half-maximal effect (EC50) was found to be 165 nM. Inhibition on IRAK4 enzyme (setting [2]) was half-maximal at 3 nM (IC50).

Consider `CC(C)(O)[C@H](F)CNC(=O)c1cnc(-c2ccc3cc(C#N)cnn23)cc1NC12CCC(NC(=O)OC3COC3)(CC1)CC2` [Example 279, (R)-oxetan-3-yl (4-((2-(3-cyanopyrrolo[1,2-b]pyridazin-7-yl)-5-((2-fluoro-3-hydroxy-3-methylbutyl)carbamoyl)pyridin-4-yl)amino)bicyclo[2.2.2]octan-1-yl)carbamate], for which the EC50 in the assay on TNFα (setting [1]) is 29 nM. Besides, at IRAK4 enzyme (setting [2]), inhibition was half-maximal at 2 nM (IC50).

As for `CC(C)(O)[C@H](F)CNC(=O)c1cnc(-c2ccc3cc(C#N)cnn23)cc1N[C@H]1CC[C@H](NC(=O)OC2COC2)CC1` [Example 280, oxetan-3-yl ((1R,4r)-4-((2-(3-cyanopyrrolo[1,2-b]pyridazin-7-yl)-5-(((R)-2-fluoro-3-hydroxy-3-methylbutyl)carbamoyl)pyridin-4-yl)amino)cyclo-hexyl)carbamate], the EC50 in the assay with TNFα (setting [1]) was 55 nM. On IRAK4 enzyme (setting [2]), the IC50 came to 1 nM.

`CC(C)(O)[C@H](F)CNC(=O)c1cnc(-c2ccc3cc(C#N)cnn23)cc1NC12CCC(NC(=O)C3CC3)(CC1)CC2` [Example 281, (R)-6-(3-cyanopyrrolo[1,2-b]pyridazin-7-yl)-4-((4-(cyclopropanecarboxamido)bicyclo[2.2.2]octan-1-yl)amino)-N-(2-fluoro-3-hydroxy-3-methylbutyl) nicotinamide]: in the assay on TNFα (setting [1]), the EC50 amounted to 37 nM. Besides, half-maximal inhibition against IRAK4 enzyme (setting [2]) (IC50) was put at 1 nM.

On to `CC1(C(=O)N[C@H]2CC[C@H](Nc3cc(-c4ccc5cc(C#N)cnn45)ncc3C(=O)NC[C@@H](F)C(C)(C)O)CC2)COC1` [Example 282, 6-(3-cyanopyrrolo[1,2-b]pyridazin-7-yl)-N-((R)-2-fluoro-3-hydroxy-3-methylbutyl)-4-(((1r,4R)-4-(3-methyloxetane-3-carboxamido)cyclohexyl)amino)nicotinamide], for which the EC50 with TNFα came out at 364 nM. This compound also gave an IC50 at IRAK4 enzyme of 2 nM.

Turning to `[2H]C([2H])([2H])OC(=O)NC12CCC(Nc3cc(-c4ccc5cc(C#N)cnn45)ncc3C(=O)NC[C@@H](F)C(C)(C)O)(CC1)CC2` [Example 283, methyl-d3 (R)-(4-((2-(3-cyanopyrrolo[1,2-b]pyridazin-7-yl)-5-((2-fluoro-3-hydroxy-3-methylbutyl)carbamoyl)pyridin-4-yl)amino)bicyclo[2.2.2]octan-1-yl)carbamate], the EC50 with TNFα (setting [1]) worked out at 14 nM. Also, on IRAK4 enzyme (setting [2]), inhibition was half-maximal at 1 nM (IC50).

As to `COCC(=O)N[C@H]1CC[C@H](Nc2cc(-c3ccc4cc(C#N)cnn34)ncc2C(=O)NC[C@@H](F)C(C)(C)O)CC1` [Example 284, 6-(3-cyanopyrrolo[1,2-b]pyridazin-7-yl)-N-((R)-2-fluoro-3-hydroxy-3-methylbutyl)-4-(((1r,4R)-4-(2-methoxyacetamido)cyclohexyl)amino) nicotinamide], the EC50 in the assay with TNFα (setting [1]) was determined as 88 nM. The IC50 against IRAK4 enzyme (setting [2]) stood at 1 nM.

On to `CN(C)S(=O)(=O)N[C@H]1CC[C@H](Nc2cc(-c3ccc4cc(C#N)cnn34)ncc2C(=O)NC[C@@H](F)C(C)(C)O)CC1` [Example 285, 6-(3-cyanopyrrolo[1,2-b]pyridazin-7-yl)-4-(((1r,4R)-4-((N,N-dimethylsulfamoyl)amino)cyclohexyl)amino)-N-((R)-2-fluoro-3-hydroxy-3-methylbutyl)nicotinamide], for which the EC50 in the assay on TNFα (setting [1]) worked out at 167 nM. At IRAK4 enzyme (setting [2]), this compound showed an IC50 of 2 nM.

As for `CN(C)C(=O)N[C@H]1CC[C@H](Nc2cc(-c3ccc4cc(C#N)cnn34)ncc2C(=O)NC[C@@H](F)C(C)(C)O)CC1` [Example 286, 6-(3-cyanopyrrolo[1,2-b]pyridazin-7-yl)-4-(((1r,4R)-4-(3,3-dimethylureido)cyclohexyl)amino)-N-((R)-2-fluoro-3-hydroxy-3-methylbutyl)nicotinamide], the EC50 in the assay with TNFα (setting [1]) turned out to be 41 nM. Moreover, it took 1 nM to reach half-maximal inhibition at IRAK4 enzyme (setting [2]) (IC50).

In the case of `CC(C)(O)[C@H](F)CNC(=O)c1cnc(-c2ccc3cc(C#N)cnn23)cc1N[C@H]1CC[C@H](NC(=O)OCC2CC2)CC1` [Example 287, cyclopropylmethyl ((1R,4r)-4-((2-(3-cyanopyrrolo[1,2-b]pyridazin-7-yl)-5-(((R)-2-fluoro-3-hydroxy-3-methylbutyl)carbamoyl)pyridin-4-yl)amino)cyclohexyl)carbamate], in the assay on TNFα (setting [1]), the EC50 was 147 nM. Also, the IC50 against IRAK4 enzyme (setting [2]) came out at 1 nM.

Consider `CC(C)(O)[C@H](F)CNC(=O)c1cnc(-c2ccc3cc(C#N)cnn23)cc1N[C@H]1CC[C@H](NC(=O)OC2CCC2)CC1` [Example 288, cyclobutyl ((1R,4r)-4-((2-(3-cyanopyrrolo[1,2-b]pyridazin-7-yl)-5-(((R)-2-fluoro-3-hydroxy-3-methylbutyl)carbamoyl)pyridin-4-yl)amino)cyclohexyl)carbamate], for which the EC50 in the assay with TNFα (setting [1]) is 54 nM. For the same compound, on IRAK4 enzyme (setting [2]), the IC50 is 1 nM.

`CC(C)(O)[C@H](F)CNC(=O)c1cnc(-c2ccc3cc(C#N)cnn23)cc1N[C@H]1CC[C@H](NCC(F)(F)F)CC1` [Example 289, 6-(3-cyanopyrrolo[1,2-b]pyridazin-7-yl)-N-((R)-2-fluoro-3-hydroxy-3-methylbutyl)-4-(((1r,4R)-4-((2,2,2-trifluoroethyl)amino)cyclohexyl)amino)nicotinamide]: the EC50 in the assay with TNFα was determined as 66 nM. At IRAK4 enzyme, this compound came in with an IC50 of 1 nM.

For `CC(C)COC(=O)N[C@H]1CC[C@H](Nc2cc(-c3ccc4cc(C#N)cnn34)ncc2C(=O)NC[C@@H](F)C(C)(C)O)CC1` [Example 290, isobutyl ((1R,4r)-4-((2-(3-cyanopyrrolo[1,2-b]pyridazin-7-yl)-5-(((R)-2-fluoro-3-hydroxy-3-methylbutyl)carbamoyl)pyridin-4-yl)amino)cyclohexyl)carbamate], in the assay with TNFα (setting [1]), the EC50 is 121 nM. Also, the IC50 against IRAK4 enzyme (setting [2]) is 1 nM.

In general, EC50 refers to the concentration at which the effect is half-maximal. The term IC50 denotes the concentration that gives 50% inhibition.
